Test results published in patent publication US20070288217A1, “Method for Standardization of Chemical and Therapeutic Values of Foods and Medicines Using Animated Chromatographic Fingerprinting” (priority 2004, published 2007).
“Also recorded” adds a separate entry of the source.

Assay: Chromatographic fingerprinting (HPLC-PDA contour and 3-D chromatograms) with interpretation of chemical and therapeutic properties by polarity and conjugation zones
Conditions: for Change of the molecules with time in the media (fingerprints at different time intervals): different time intervals under chemical conditions

## COc1ccc2[nH]c([S+]([O-])Cc3ncc(C)c(OC)c3C)nc2c1 (stereo not shown) [Onmeprazole]
Simulated acidic condition
  Therapeutic property interpreted from the fingerprint: Ropaneeya property
The other prakrithi
  Therapeutic property interpreted from the fingerprint: has not acted so

## CC(C)=CCC/C(C)=C/C=C/C(C)=C/C=C/C(C)=C/C=C/C=C(C)/C=C/C=C(C)/C=C/C=C(\C)CCC=C(C)C [Lycopine]
  Therapeutic property / site of action interpreted from the fingerprint: shrothoshodhaka property; also recorded: stress reliever
  Change of the molecules with time in the media (fingerprints at different time intervals): under go changes; also recorded: slowly diminished with time

## CC12CC3CC(C)(C1)CC(N)(C3)C2 [Mamentane]
Excessive use
  Effect when consumed excessively, interpreted from the fingerprint: effect on Maha srothas

## O=C(/C=C/c1ccc(O)c(O)c1)O[C@@H]1C[C@](O)(C(=O)O)C[C@@H](O)[C@H]1O [Chlorogenic acid]
  Change of the molecules with time in the media (fingerprints at different time intervals): under go changes

## Cc1ccc(-c2cc(C(F)(F)F)nn2-c2ccc(S(N)(=O)=O)cc2)cc1 [Celebocoxib]
  Action compared to the other medicines of the same group: different in action
